# Measured values taken from ChEMBL document CHEMBL3596159, “Beyond substrate analogues: new inhibitor chemotypes for glycosyltransferases” (Medchemcomm, 2014).
# Legend:
# [1] = target: T1, UDP-N-acetylglucosamine--peptide N-acetylglucosaminyltransferase 110 kDa subunit (Homo sapiens) (UniProt O15294); experiment: Inhibition of OGT (unknown origin); conditions: concentration not given here
# T1 sequence (whole entry): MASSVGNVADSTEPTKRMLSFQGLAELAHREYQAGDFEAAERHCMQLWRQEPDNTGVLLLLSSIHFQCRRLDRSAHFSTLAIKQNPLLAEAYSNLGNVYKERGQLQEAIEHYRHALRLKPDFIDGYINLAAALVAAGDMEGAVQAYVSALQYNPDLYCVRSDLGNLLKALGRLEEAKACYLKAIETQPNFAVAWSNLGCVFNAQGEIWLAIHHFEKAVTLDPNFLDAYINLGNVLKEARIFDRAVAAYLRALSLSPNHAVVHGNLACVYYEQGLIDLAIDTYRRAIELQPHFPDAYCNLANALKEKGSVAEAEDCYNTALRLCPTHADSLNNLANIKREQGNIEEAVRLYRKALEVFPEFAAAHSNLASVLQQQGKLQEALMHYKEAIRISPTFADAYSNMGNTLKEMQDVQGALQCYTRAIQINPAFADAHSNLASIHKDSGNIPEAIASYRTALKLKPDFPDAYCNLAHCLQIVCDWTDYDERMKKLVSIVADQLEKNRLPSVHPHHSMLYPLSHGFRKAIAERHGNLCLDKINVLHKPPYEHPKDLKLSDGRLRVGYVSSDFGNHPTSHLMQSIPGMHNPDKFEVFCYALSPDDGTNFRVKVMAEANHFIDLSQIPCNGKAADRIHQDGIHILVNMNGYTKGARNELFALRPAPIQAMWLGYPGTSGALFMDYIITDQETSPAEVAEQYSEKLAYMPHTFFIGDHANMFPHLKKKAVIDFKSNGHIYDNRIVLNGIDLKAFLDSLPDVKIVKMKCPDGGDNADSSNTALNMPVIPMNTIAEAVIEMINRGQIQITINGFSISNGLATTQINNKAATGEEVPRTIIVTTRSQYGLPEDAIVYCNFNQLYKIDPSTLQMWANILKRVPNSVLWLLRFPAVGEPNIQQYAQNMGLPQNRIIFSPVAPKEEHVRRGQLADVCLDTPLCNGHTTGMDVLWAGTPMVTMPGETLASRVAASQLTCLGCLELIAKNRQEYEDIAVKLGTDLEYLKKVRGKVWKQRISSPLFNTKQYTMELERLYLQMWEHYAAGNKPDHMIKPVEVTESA
# [2] = Inhibition of MGDG (unknown origin)
# [3] = tested on: Trypanosoma brucei; experiment: Inhibition of Trypanosoma brucei DPMS at 1 mM
# [4] = target: Alpha-(1,6)-fucosyltransferase (Homo sapiens, UniProt Q9BYC5); experiment: Inhibition of FucT-8 in human blood platelets
# Sequence of Alpha-(1,6)-fucosyltransferase (Q9BYC5 whole entry): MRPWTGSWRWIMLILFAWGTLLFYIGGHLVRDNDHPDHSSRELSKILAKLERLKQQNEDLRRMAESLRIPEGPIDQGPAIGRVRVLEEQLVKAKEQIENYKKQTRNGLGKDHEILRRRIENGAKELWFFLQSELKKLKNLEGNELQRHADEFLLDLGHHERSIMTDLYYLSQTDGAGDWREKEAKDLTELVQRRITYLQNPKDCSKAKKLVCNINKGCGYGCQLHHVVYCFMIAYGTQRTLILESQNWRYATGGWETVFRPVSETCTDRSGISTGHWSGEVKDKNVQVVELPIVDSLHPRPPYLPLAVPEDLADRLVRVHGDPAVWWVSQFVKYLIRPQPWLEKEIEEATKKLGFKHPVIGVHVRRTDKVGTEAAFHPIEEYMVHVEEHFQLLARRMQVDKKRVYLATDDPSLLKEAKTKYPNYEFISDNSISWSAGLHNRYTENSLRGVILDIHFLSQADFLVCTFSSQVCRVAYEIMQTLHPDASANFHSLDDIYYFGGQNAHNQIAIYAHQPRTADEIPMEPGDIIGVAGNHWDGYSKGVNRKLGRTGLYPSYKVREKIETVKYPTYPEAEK
# [5] = target: Alpha-(1,3)-fucosyltransferase 4 (Homo sapiens, UniProt P22083); experiment: Inhibition of FucT-4 (unknown origin)
# Sequence of Alpha-(1,3)-fucosyltransferase 4 (P22083 whole entry): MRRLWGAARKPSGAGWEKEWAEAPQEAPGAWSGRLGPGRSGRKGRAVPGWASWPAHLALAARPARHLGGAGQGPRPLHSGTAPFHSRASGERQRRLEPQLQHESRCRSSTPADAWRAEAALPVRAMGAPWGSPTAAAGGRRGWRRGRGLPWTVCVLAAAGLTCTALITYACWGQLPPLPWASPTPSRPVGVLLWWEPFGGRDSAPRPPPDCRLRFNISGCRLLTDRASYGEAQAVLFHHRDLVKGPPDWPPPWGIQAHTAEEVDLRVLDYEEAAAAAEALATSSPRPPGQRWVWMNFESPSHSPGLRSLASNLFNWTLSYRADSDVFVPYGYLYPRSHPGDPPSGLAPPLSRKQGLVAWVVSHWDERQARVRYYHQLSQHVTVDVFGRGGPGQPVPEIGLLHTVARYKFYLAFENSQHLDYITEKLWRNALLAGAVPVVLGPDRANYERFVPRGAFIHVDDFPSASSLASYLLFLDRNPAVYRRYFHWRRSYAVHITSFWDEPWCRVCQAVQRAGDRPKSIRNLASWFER
# [6] = target: T2, CMP-N-acetylneuraminate-beta-1,4-galactoside alpha-2,3-sialyltransferase (Homo sapiens, UniProt Q11203); experiment: Inhibition of ST3N (unknown origin)
# T2 sequence (Q11203 whole entry): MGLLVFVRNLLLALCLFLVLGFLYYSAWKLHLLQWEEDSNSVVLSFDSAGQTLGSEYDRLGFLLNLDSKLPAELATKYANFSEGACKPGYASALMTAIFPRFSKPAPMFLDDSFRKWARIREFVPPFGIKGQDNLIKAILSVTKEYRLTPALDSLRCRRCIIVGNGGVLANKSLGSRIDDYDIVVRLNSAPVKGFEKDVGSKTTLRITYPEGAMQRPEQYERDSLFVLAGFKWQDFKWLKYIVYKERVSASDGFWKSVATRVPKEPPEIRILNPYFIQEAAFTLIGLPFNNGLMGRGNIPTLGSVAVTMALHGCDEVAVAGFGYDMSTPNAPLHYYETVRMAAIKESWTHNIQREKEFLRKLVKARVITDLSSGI
# [7] = target: T3, Alpha-(1,3)-fucosyltransferase 7 (Homo sapiens, UniProt Q11130); experiment: Inhibition of FucT-7 (unknown origin)
# T3 sequence (Q11130 whole entry): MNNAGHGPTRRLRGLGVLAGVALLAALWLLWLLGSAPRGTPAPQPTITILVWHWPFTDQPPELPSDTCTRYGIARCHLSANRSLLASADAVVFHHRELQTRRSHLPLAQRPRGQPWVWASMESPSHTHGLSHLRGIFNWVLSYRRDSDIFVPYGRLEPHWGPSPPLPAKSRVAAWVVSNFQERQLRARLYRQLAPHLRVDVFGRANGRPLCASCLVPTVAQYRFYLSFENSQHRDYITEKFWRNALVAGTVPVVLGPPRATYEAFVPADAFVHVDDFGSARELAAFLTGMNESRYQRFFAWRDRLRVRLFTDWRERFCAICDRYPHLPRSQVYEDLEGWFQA
# [8] = target: T4, Beta-galactoside alpha-2,6-sialyltransferase 1 (Homo sapiens, UniProt P15907); experiment: Inhibition of ST6N (unknown origin)
# T4 sequence (P15907 whole entry): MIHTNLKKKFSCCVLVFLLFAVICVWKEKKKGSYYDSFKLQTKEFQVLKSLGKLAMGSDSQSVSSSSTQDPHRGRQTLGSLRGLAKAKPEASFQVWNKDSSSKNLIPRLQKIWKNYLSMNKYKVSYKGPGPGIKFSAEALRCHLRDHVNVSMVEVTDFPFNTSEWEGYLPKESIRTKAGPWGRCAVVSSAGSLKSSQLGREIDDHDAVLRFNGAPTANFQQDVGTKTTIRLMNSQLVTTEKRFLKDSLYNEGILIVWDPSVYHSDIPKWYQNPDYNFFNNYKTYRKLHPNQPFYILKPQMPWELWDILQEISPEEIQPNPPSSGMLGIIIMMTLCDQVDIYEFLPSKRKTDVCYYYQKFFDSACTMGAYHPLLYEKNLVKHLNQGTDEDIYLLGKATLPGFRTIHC
# [9] = target: T5, CMP-N-acetylneuraminate-beta-galactosamide-alpha-2,3-sialyltransferase 1 (Homo sapiens, UniProt Q11201); experiment: Inhibition of ST3Gal 1 (unknown origin)
# T5 sequence (Q11201 whole entry): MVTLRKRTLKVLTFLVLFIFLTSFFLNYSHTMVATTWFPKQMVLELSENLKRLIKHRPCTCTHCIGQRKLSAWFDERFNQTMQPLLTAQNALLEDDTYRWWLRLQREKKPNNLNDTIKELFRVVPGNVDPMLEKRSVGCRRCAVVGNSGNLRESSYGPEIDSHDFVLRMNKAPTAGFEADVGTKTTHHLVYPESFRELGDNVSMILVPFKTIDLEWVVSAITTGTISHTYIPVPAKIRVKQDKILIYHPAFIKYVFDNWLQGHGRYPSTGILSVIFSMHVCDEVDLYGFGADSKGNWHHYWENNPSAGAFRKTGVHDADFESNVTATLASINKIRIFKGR
# [10] = target: T6, 4-galactosyl-N-acetylglucosaminide 3-alpha-L-fucosyltransferase FUT5 (Homo sapiens, UniProt Q11128); experiment: Inhibition of FucT-5 (unknown origin)
# T6 sequence (Q11128 whole entry): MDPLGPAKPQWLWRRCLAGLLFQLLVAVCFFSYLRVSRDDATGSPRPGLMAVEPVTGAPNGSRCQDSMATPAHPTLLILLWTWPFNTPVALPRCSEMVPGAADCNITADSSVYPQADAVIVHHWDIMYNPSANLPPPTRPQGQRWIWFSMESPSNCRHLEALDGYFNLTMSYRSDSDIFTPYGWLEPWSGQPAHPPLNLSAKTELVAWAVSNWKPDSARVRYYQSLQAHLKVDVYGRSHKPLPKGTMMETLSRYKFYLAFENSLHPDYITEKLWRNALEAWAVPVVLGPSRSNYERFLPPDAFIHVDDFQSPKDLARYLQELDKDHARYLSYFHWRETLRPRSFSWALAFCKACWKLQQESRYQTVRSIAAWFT
# [11] = target: T7, 4-galactosyl-N-acetylglucosaminide 3-alpha-L-fucosyltransferase FUT6 (Homo sapiens, UniProt P51993); experiment: Inhibition of FucT-6 (unknown origin)
# T7 sequence (P51993 whole entry): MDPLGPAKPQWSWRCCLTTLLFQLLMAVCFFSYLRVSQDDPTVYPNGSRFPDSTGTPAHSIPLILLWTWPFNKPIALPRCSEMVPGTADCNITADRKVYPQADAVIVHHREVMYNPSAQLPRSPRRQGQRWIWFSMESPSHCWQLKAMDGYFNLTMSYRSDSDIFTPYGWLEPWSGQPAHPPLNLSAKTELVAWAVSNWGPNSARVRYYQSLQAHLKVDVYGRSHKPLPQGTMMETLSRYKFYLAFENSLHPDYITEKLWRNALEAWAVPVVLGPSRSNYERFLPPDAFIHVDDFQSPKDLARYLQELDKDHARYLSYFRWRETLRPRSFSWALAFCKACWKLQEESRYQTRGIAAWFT
# [12] = Inhibition of short OGT (unknown origin); parameters: species or system Homo sapiens
# [13] = tested on: Candida albicans; experiment: Antifungal activity against Candida albicans; type: functional
# [14] = Inhibition of candida albicans beta-(1,3)-glucan synthase assessed as decrease in transfer of radiolabelled glucose from UDP-[3H]-glucose onto acceptor
# [15] = Inhibition of MraY (unknown origin)
# [16] = target: Ceramide glucosyltransferase (Homo sapiens, UniProt Q16739); experiment: Inhibition of glucosylceramide synthase (unknown origin)
# Sequence of Ceramide glucosyltransferase (Q16739 whole entry): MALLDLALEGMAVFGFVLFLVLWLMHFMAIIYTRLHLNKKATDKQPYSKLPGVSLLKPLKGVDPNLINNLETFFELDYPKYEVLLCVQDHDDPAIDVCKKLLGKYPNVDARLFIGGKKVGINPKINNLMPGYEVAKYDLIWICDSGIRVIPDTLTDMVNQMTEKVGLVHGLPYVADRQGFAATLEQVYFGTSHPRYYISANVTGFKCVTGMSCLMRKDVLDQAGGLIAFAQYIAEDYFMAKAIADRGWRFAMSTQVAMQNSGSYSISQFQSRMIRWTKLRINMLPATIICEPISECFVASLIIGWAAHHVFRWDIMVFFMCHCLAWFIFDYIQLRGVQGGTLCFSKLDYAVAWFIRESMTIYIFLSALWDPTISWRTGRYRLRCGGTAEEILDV
# [17] = tested on: Streptococcus mutans; experiment: Inhibition of Streptococcus mutans sucrose-6-glucosyltransferase at 50 uM
# [18] = target: Beta-galactoside alpha-2,6-sialyltransferase 1 (Rattus norvegicus, UniProt P13721); experiment: Inhibition of rat ST6Gal1
# Sequence of Beta-galactoside alpha-2,6-sialyltransferase 1 (Rattus norvegicus, UniProt P13721) (P13721 whole entry): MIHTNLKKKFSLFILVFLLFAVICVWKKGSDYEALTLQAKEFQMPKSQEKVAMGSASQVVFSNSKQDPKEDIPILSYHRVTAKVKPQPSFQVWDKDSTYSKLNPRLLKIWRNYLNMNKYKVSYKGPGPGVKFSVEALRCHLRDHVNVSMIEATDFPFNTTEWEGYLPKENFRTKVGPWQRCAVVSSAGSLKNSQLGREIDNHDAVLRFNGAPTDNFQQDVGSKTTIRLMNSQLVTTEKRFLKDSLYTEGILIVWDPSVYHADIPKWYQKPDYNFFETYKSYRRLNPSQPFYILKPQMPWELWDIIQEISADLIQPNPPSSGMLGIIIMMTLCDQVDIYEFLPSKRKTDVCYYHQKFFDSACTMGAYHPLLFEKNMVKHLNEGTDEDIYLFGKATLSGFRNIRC
# [19] = target: T4, Beta-galactoside alpha-2,6-sialyltransferase 1; experiment: Inhibition of human ST6Gal1
smiles,measurement,setting,value
O=C(/C=C/c1cccs1)Nc1scc(-c2ccccc2)c1C(=O)O,inhibition,[1],> 30%
O=C(OC[C@H](Cc1ccccc1)N(Cc1ccccc1)Cc1ccccc1)N1CCC(n2c(=O)[nH]c3ccccc32)CC1,IC50,[2],12 µM
O=C(O)CN1C(=O)/C(=C\c2cccc(OCc3ccccc3)c2)SC1=S,inhibition,[3],77%
Nc1c(S(=O)(=O)O)cc(Nc2ccc(Nc3nc(Cl)nc(Nc4ccccc4S(=O)(=O)O)n3)c(S(=O)(=O)O)c2)c2c1C(=O)c1ccccc1C2=O [CIBACRON BLUE 3GA],Ki,[4],11 µM
O=C(O[C@H]1Cc2c(O)cc(O)cc2O[C@H]1c1cc(O)c(O)c(O)c1)c1cc(O)c(O)c(O)c1,IC50,[5],1.8 µM
same,IC50,[6],2.7 µM
same,IC50,[7],0.7 µM
C[C@@H]1CC[C@H]2C(C)(C)[C@H](O)CC[C@]2(C)[C@@]12Cc1c(O)cc3c(c1O2)COC3=O,IC50,[8],8 µM
same,IC50,[6],50 µM
same,IC50,[9],30.2 µM
same,IC50,[10],> 200 µM
same,IC50,[11],> 200 µM
O=C(Oc1ccccc1)n1c(=O)oc2ccc(Cl)cc21,IC50,[12],27 µM
CC(=O)O[C@@H]1C[C@]23C4=CC[C@@]5(C)[C@H](C(=O)O)[C@@](C)([C@H](C)C(C)C)CC[C@]5(C)[C@H]4CC[C@H]2[C@@](C)(COC3O)[C@H]1O[C@@H]1O[C@H](CO)[C@@H](O)[C@H](O)[C@H]1O (some centres undefined) [ENFUMAFUNGIN],MIC,[13],0.05 mg/L
same,IC50,[14],1 µM
CCCCCCCCCCCCCCCc1cc(OS(=O)(=O)O)cc(OS(=O)(=O)O)c1,IC50,[7],4.3 µM
NC[C@H]1O[C@@H](O[C@H](c2cn(CCCCCOc3ccc(C(=O)c4ccccc4)cc3)nn2)[C@H]2O[C@@H](n3ccc(=O)[nH]c3=O)[C@H](O)[C@@H]2O)[C@H](O)[C@@H]1O,IC50,[15],100 µM
CCCCCCCCCC(=O)N[C@H](CN1CCCC1)[C@H](O)c1ccccc1,IC50,[16],4 µM
CC(C)[C@@H](C)/C=C/[C@@H](C)[C@H]1CCC2=C3[C@@H](O)[C@@H]4O[C@@]45C[C@@H](OC(=O)[C@@H](N)[C@@H](OS(=O)(=O)O)C(C)C)CC[C@]5(C)[C@H]3CC[C@@]21C(=O)O,MIC,[13],0.2 mg/L
same,IC50,[14],3 µM
NC[C@H]1O[C@@H](O[C@H](c2cn(Cc3ccc(COc4ccc(C(=O)c5ccccc5)cc4)cc3)nn2)[C@H]2O[C@@H](n3ccc(=O)[nH]c3=O)[C@H](O)[C@@H]2O)[C@H](O)[C@@H]1O,IC50,[15],50 µM
O=S(=O)(O)c1cc(Nc2nc(Cl)nc(Nc3ccc(Nc4nc(Cl)nc(Nc5cc(S(=O)(=O)O)cc6cc(S(=O)(=O)O)c(/N=N/c7ccccc7S(=O)(=O)O)c(O)c56)n4)cc3)n2)c2c(O)c(/N=N/c3ccccc3S(=O)(=O)O)c(S(=O)(=O)O)cc2c1,Ki,[4],2 µM
CCCCCCCC/C=C\CCCCCCCC(=O)O,inhibition,[17],42.4%
O=C(O)CN1C(=O)/C(=C\c2ccccc2O)SC1=S,inhibition,[3],77%
CC(C)CCCCCCCCCCCCc1cc(OS(=O)(=O)O)cc(OS(=O)(=O)O)c1,IC50,[7],4.8 µM
C[C@@H]1CC[C@H]2C(C)(C)[C@H](O)[C@H](O)C[C@]2(C)[C@@]12Cc1c(O)cc3c(c1O2)COC3=O,IC50,[8],18.5 µM
same,IC50,[6],111 µM
same,IC50,[9],168 µM
same,IC50,[10],> 200 µM
same,IC50,[11],> 200 µM
CCOC(=O)C(C(C)C)C(N)Cc1ccc(F)cc1 (centres undefined),inhibition,[1],> 30%
O=C(O)c1ccc2scnc2c1,inhibition,[1],> 30%
CCCCCCCCO[C@H]1CN(CCCCCCCC)[C@H](CO)[C@@H](O)[C@@H]1O,IC50,[16],164 µM
C[C@@H](COC(=O)N1CCC(n2c(=O)[nH]c3ccccc32)CC1)N(Cc1ccccc1)Cc1ccccc1,IC50,[2],10 µM
CCCCCCCC/C=C\CCCCCCCC(=O)OC,inhibition,[17],16.8%
O=C(O)CN1C(=O)/C(=C\c2ccc(OCc3ccccc3)c(OCc3ccccc3)c2)SC1=S,inhibition,[3],80%
CCCCCCCC/C(I)=C(/I)CCCCCCCC(=O)OCC(COC(=O)CCCCCCC/C(I)=C(/I)CCCCCCCC)OC(=O)CCCCCCC/C(I)=C(/I)CCCCCCCC,inhibition,[17],26.3%
O=c1c(O)c(-c2ccc(O)c(O)c2)oc2ccccc12,IC50,[18],1.9 µM
same,IC50,[19],7.5 µM
